Laboratory results taken from US10563267B2, “Polymorphism biomarkers predict clinical outcomes of cancer patients receiving regorafenib” (University of Southern California, priority 2016, dated 2020).

How the values were obtained:
cancer patients [1] = assay: Clinical outcome (OS, PFS, tumor response) of cancer patients treated with regorafenib, by SNP genotype; assay type: in vivo, human
Experimental: Further, single nucleotide polymorphisms (SNPs) of genes involved in various angiogenic pathways were evaluated for their ability to predict clinical outcomes for cancer patient treated with a therapy comprising regorafenib or an equivalent thereof.
Still further, combinations of single nucleotide polymorphisms (SNPs) of genes involved in various angiogenic pathways were evaluated for their ability to predict clinical outcomes for cancer patient treated with a therapy comprising regorafenib or an equivalent thereof.
Genomic DNA was obtained from cancer patients in therapies comprising regorafenib or an equivalent thereof and analyzed by using PCR-based direct sequencing. Multiple functional SNPs in 11 genes (NOTCH1, IL8, CCL5, DLL4, PLGF, ANG2, TIE1, PDGFRB, VEGFR2, EGFC and VEGFA) were tested.
PCR and product sequencing were done using standard procedures. Uni- and multivariate analyses, adjusting for age, gender, rash and racial background, were carried out.

cancer patients [2] = assay: Hand foot skin reaction (HFSR) in cancer patients receiving regorafenib, by ethnicity; assay type: in vivo, human
Experimental: HFSR of grade 3-4 are among the most common grade 3-4 […] reactions associated with a therapy with regorafenib or an equivalent thereof. In this example, single nucleotide polymorphisms (SNPs) of CCL5 were evaluated for their ability to predict the likelihood for a patient to experience HFSR from a therapy comprising an effective amount of regorafenib or an equivalent thereof.
Genomic DNA was obtained from more than 200 cancer patients receiving regorafenib and analyzed by using PCR-based direct sequencing. SNPs in CCL5 were tested to discover that the rarity (<1%) of the genotype of (G/G) for the rs2280789 polymorphism and/or the rs3817655 polymorphism (the genotype of (G/G) for the rs2280789 polymorphism and/or the rs3817655 are seen in 10% in Asian (Japanese) and 1% in Caucasian (Italian)) relates to the significant ethnic difference in severe HFSR developed by Caucasian patients compared to Japanese patients (grade 3 HFSR 16% vs 33.8% respectively, p=0.003).

[3] = VEGFR2 rs2071559 A/Variant + NOTCH1 rs3125001 C/C + ANG2 rs2916702 A/Variant carriers
[4] = VEGFR2 rs2071559 A/Variant + NOTCH1 rs3125001 C/C + ANG2 rs2916702 G/G carriers
[5] = VEGFR2 rs2071559 A/Variant + NOTCH1 rs3125001 T/Variant carriers
[6] = VEGFR2 rs2071559 A/variant carriers (N=111)

- grade 3 HFSR (cancer patients [2]; Caucasian (Italian) patients receiving regorafenib): 16%
- grade 3 HFSR (cancer patients [2]; Japanese patients receiving regorafenib): 33.8%
Structure (SMILES): CNC(=O)c1cc(Oc2ccc(NC(=O)Nc3ccc(Cl)c(C(F)(F)F)c3)c(F)c2)ccn1 [regorafenib]
- HR for OS (cancer patients [1]; TIE1 A/A + Plgf C/C vs TIE1 G/Variant carriers (HR reference), multivariate): 0.22
- HR for OS (cancer patients [1]; TIE1 A/A + Plgf T/Variant vs TIE1 G/Variant carriers (HR reference), multivariate): 0.79
- median OS (cancer patients [1]; TIE1 rs7527092 A/A (N=41)): 4.7 months
- median OS (cancer patients [1]; TIE1 rs7527092 A/A + Plgf rs2268614 C/C carriers (N=9)): 2.6 months
- median OS (cancer patients [1]; TIE1 rs7527092 A/A + Plgf rs2268614 T/Variant carriers (N=32)): 5.8 months
- HR for OS (cancer patients [1]; TIE1 rs7527092 A/A vs G/variant carriers, multivariate, p=0.0063): 1.72
- HR for OS (cancer patients [1]; TIE1 rs7527092 A/A vs G/variant carriers, univariate, p=0.0303): 1.49
- median OS (cancer patients [1]; TIE1 rs7527092 G/Variant carriers (N=109)): 7.8 months
- median OS (cancer patients [1]; TIE1 rs7527092 G/variant carriers (N=106)): 7.8 months
- patients non-responsive (tumor response) (cancer patients [1]; [3]): 7
- patients responsive (tumor response) (cancer patients [1]; [3]): 16
- patients non-responsive (tumor response) (cancer patients [1]; [4]): 6
- patients responsive (tumor response) (cancer patients [1]; [4]): 2
- patients non-responsive (tumor response) (cancer patients [1]; [5]): 49
- patients responsive (tumor response) (cancer patients [1]; [5]): 25
- median OS (cancer patients [1]; [6]): 7.0 months
- median PFS (cancer patients [1]; [6]): 2.3 months
- response (positive) (cancer patients [1]; [6]): 41%
- median OS (cancer patients [1]; VEGFR2 rs2071559 G/G (N=39)): 4.7 months
- median PFS (cancer patients [1]; VEGFR2 rs2071559 G/G (N=39)): 1.8 months
- response (positive) (cancer patients [1]; VEGFR2 rs2071559 G/G (N=39)): 18%
- patients non-responsive (tumor response) (cancer patients [1]; VEGFR2 rs2071559 G/G carriers): 31
- patients responsive (tumor response) (cancer patients [1]; VEGFR2 rs2071559 G/G carriers): 7
- HR for PFS (cancer patients [1]; VEGFR2 rs2071559 G/G vs A/variant carriers, multivariate, p=0.0197): 1.59
- HR for PFS (cancer patients [1]; VEGFR2 rs2071559 G/G vs A/variant carriers, univariate, p=0.0250): 1.49
- HR for OS (cancer patients [1]; VEGFR2 rs2071559 G/G vs A/variant carriers, univariate, p=0.0452): 1.45
- median PFS (cancer patients [1]; high-risk group: VEGFR2 rs2071559 G/G + NOTCH1 rs6563 A/A (N=15) together with G/G + NOTCH1 G/Variant + ANG2 rs2442599 A/A (N=11)): 1.7 months
- median PFS (cancer patients [1]; low-risk group: VEGFR2 rs2071559 A/variant (N=111) together with G/G + NOTCH1 rs6563 G/Variant + ANG2 rs2442599 G/Variant (N=13)): 2.3 months
- HR for PFS (cancer patients [1]; tree model high-risk vs low-risk group (VEGFR2/NOTCH1/ANG2), multivariate, log-rank P<0.001): 0.41
